The text below walks through data of PMC3094704, “S-Petasin, the Main Sesquiterpene of Petasites formosanus, Inhibits Phosphodiesterase Activity and Suppresses Ovalbumin-Induced Airway Hyperresponsiveness” (Evidence-based Complementary and Alternative Medicine : eCAM, 2011).

One assay has as its system PDE1. Nature of the assay: Inhibition of PDE1 activity (two-step radioenzymatic assay). The class given is biochemical, guinea pig. The settings on record: mean ± SEM (n); read-out: IC50 on PDE isozyme 1. The protocol: Activities of PDE1–5, partially separated from guinea pig lungs and hearts according to the method described by Ko et al., were measured with a two-step procedure according to the method of Thompson and Appleman, using cAMP with [^3H]-cAMP or cGMP with [^3H]-cGMP as substrates. The enzyme pμreparation (25 μL) was incubated for 30 min at 37°C in a total assay volume of […] containing 50 mM Tris-HCl (pH 7.4), 3 mM MgCl2, 1 mM dithiothreitol, 0.05% BSA, 1 μM cAMP with 0.2 μCi [^3H]-cAMP as a substrate alone or in the presence of 0.1 units calmodulin with 10 μM CaCl2 or 5 μM cGMP, and 1 μM cGMP with 0.2 μCi [^3H]-cGMP as another substrate alone or in the presence of 0.1 units calmodulin with 10 μM CaCl2. In tests of enzyme inhibition, the reaction mixture contained 10 μL of vehicle or inhibitors, at various concentrations of S-petasin or selective PDE1–5 inhibitors, such as vinpocetin [22], EHNA [23], milrinone, Ro 20-1724 [25] and zaprinast, as reference drugs. The reagents and homogenate were mixed on ice, and the reaction was initiated by transferring the mixture to a water bath at 37°C. Following a 30-min incubation, the reaction was stopped by transferring the reaction vessel to a bath of boiling water for 3 min. After cooling on ice, 20 μL of a 1 mg/mL solution of C. atrox snake venom was added to the reaction mixture, and the mixture was incubated at 37°C for 10 min. […]

Another assay deals with PDE4. Nature of the assay: Inhibition of PDE4 activity and Lineweaver-Burk analysis. The class given is biochemical, guinea pig. The protocol: Activities of PDE1–5, partially separated from guinea pig lungs and hearts according to the method described by Ko et al., were measured with a two-step procedure according to the method of Thompson and Appleman, using cAMP with [^3H]-cAMP or cGMP with [^3H]-cGMP as substrates. The enzyme pμreparation (25 μL) was incubated for 30 min at 37°C in a total assay volume of […] containing 50 mM Tris-HCl (pH 7.4), 3 mM MgCl2, 1 mM dithiothreitol, 0.05% BSA, 1 μM cAMP with 0.2 μCi [^3H]-cAMP as a substrate alone or in the presence of 0.1 units calmodulin with 10 μM CaCl2 or 5 μM cGMP, and 1 μM cGMP with 0.2 μCi [^3H]-cGMP as another substrate alone or in the presence of 0.1 units calmodulin with 10 μM CaCl2. In tests of enzyme inhibition, the reaction mixture contained 10 μL of vehicle or inhibitors, at various concentrations of S-petasin or selective PDE1–5 inhibitors, such as vinpocetin [22], EHNA [23], milrinone, Ro 20-1724 [25] and zaprinast, as reference drugs. The reagents and homogenate were mixed on ice, and the reaction was initiated by transferring the mixture to a water bath at 37°C. Following a 30-min incubation, the reaction was stopped by transferring the reaction vessel to a bath of boiling water for 3 min. After cooling on ice, 20 μL of a 1 mg/mL solution of C. atrox snake venom was added to the reaction mixture, and the mixture was incubated at 37°C for 10 min. Unreacted [^3H]-cAMP or [^3H]-cGMP was removed by the addition of 500 μL of a 1-in-1 Tris-HCl (40 mM) buffer suspension of Dowex resin (1 × 8-200) with incubation on ice for 30 min. Each tube was then centrifuged for 2 min at 3700 g, and 150 μL of the supernatant was removed for liquid scintillation counting. Less than 10% of the tritiated cyclic nucleotide was hydrolyzed in this assay. The total protein in each fraction used was assayed according to the method described by Bradford. The PDE activities are shown as nmol/mg/min in the Lineweaver-Burk analysis.

Assay [1] relates to isolated sensitized guinea pig trachea. Nature of the assay: OVA-induced tracheal contractions and baseline tension in vitro. As for the experimental part: Male Hartley guinea pigs (500–600 g) were sensitized by intramuscular injections of 0.7 mL of 5% (w/v) OVA in saline on Days 1, 4 and 43, and in adjuvant on Days 25 and 39 into each thigh, according to a method described by Underwood et al. and modified by us. Three days after the last injection, sensitized guinea pigs were sacrificed by cervical dislocation, and their tracheas removed. Each trachea was cut into six segments. Each segment consisted of three cartilage rings. All segments were cut open opposite the trachealis. […] Tissues were suspended in normal Krebs solution under an initial tension of 1.5 g and allowed to equilibrate for at least 1 h with washing at 15-min intervals. After the tissues were precontracted with KCl (60 mM) and washed with normal Krebs solution, OVA (0.1–100 μg/mL) was cumulatively added, and contractions were allowed to reach a steady state at each concentration. […] Therefore, the log concentration-response curves of OVA were constructed in the absence and presence of S-petasin. The tension of the precontraction induced by KCl was set as 100%.

For a further assay, the system named is guinea pig trachea. The conditions noted are these: precontracted by histamine, carbachol (CCh), KCl or leukotriene (LT) D4; read-out: IC50 in relaxing guinea pig trachea; cited from earlier work.

For `C=C(C)[C@@H]1C[C@@]2(C)C(=CC1=O)CC[C@@H](OC(=O)/C=C\SC)[C@@H]2C` [S-Petasin], the 50% inhibitory concentration (IC50) in the assay on PDE1 is over 100 µM; in the assay with PDE4 (mean ± SEM (n), read-out: IC50 on PDE isozyme 4 (taken as PDE4L value)), 17.5 µM; in the assay on guinea pig trachea, under 10 µM. In addition, the Ki at PDE4 (Lineweaver-Burk analysis, cAMP substrate, read-out: Ki on PDE isozyme 4) was found to be 18.1 ± 1.7 µM. Moreover, the “Mode of inhibition of PDE4 activity” value in the assay on PDE4 (Lineweaver-Burk analysis, S-petasin 3–30 μM, Ro 20-1724 1–10 μM) is “competitively inhibited”. Besides, in assay [1] (30–100 μM, 15 min preincubation), the “OVA (100 μg/mL)-induced contractions” value is recorded as “did not significantly inhibit”. In addition, in assay [1] (30–300 μM), the Baseline tension entry is “concentration-dependently and significantly relaxed”.
